In patent US20230242585A1, “IMMUNOMODULATORS” (Bristol-Myers Squibb Company, priority 2020, published 2023):
Starred links: 1 amine or outer side, 2 acyl side, 3 side chain; linkers in the order of their positions; H or OH if unused. Positions of bridges follow the written chain, without caps; N, C: chain ends. Non-standard residues stand in square brackets, D forms with d. Residues, ends and D or L forms follow the SMILES beside them. X27 = O=C([C@H](CNC[C@H](O)[C@@H](O)[C@H](O[C@@H]1O[C@H](CO)[C@H](O)[C@H](O)[C@H]1O)[C@H](O)CO)N[*:1])[*:2]; X43 = O=C([C@H](CNC[C@@H](O)[C@H](O)[C@@H](O)[C@@H](O)CO)N[*:1])[*:2]; X11 = O=C([C@H](CNC[C@H](O)[C@@H](O)[C@@H](O)[C@H](O)CO)N[*:1])[*:2]; X58 = O=C([C@H](CNC[C@H](O)[C@@H](O)[C@H](O)[C@H](O)CO)N[*:1])[*:2]; X32 = O=C([C@H](CCNC[C@@H](O)[C@H](O)[C@@H](O)CO)N[*:1])[*:2]; X31 = O=C([C@H](CNC[C@@H](O)[C@H](O)[C@@H](O)CO)N[*:1])[*:2]; X6 = O=C([C@H](CCNC[C@H](O)[C@@H](O)[C@H](O)CO)N[*:1])[*:2]; X5 = O=C([C@H](CNC[C@H](O)[C@@H](O)[C@H](O)CO)N[*:1])[*:2]; Trp(1-CH2COOH) = N[C@@H](Cc1cn(CC(=O)O)c2ccccc12)C(=O)O; Hyp = O=C(O)[C@@H]1C[C@@H](O)CN1; NMeNle = CCCC[C@H](NC)C(=O)O; NMeA = CN[C@@H](C)C(=O)O; Dab = NCC[C@H](N)C(=O)O

Target: T1, PD-1/PD-L1 (Homo sapiens, UniProt Q9NZQ7)
T1 construct: TVMV protease site (linker) (C); made in house; host or cells: HEK293T cells
T1 sequence (Q9NZQ7 18-239): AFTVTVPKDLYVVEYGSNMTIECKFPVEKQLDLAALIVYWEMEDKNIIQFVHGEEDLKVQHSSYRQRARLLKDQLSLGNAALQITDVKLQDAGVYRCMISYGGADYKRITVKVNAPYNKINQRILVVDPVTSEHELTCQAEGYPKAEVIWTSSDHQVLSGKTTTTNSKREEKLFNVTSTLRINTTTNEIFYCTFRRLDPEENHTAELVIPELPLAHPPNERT
Assay: PD-1/PD-L1 Homogenous Time-Resolved Fluorescence (HTRF) binding assay
Settings: PD-L1-His 10 nM, PD-1-Ig 20 nM
Excerpt: The ability of the compounds of formula (I) to bind to PD-L1 was investigated using a PD-1/PD-L1 Homogenous Time-Resolved Fluorescence (HTRF) binding assay.
The interaction of PD-1 and PD-L1 can be assessed using soluble, purified preparations of the extracellular domains of the two proteins. The PD-1 and PD-L1 protein extracellular domains were expressed as fusion proteins with detection tags, for PD-1, the tag was the Fc portion of Immunoglobulin (PD-1-Ig) and for PD-L1 it was the 6 histidine motif (PD-L1-His). All binding studies were performed in an HTRF assay buffer consisting of dPBS supplemented with 0.1% […] bovine serum albumin and 0.05% (v/v) Tween-20. For the h/PD-L1-His binding assay, inhibitors were pre-incubated with PD-L1-His (10 nM final) for 15 m in 4 µl of assay buffer, followed by addition of PD-1-Ig (20 nM final) in 1 µl of assay buffer and further incubation for 15 m. HTRF detection was achieved using europium crypate-labeled anti-Ig (1 nM final) and allophycocyanin (APC) labeled anti-His (20 nM final). Antibodies were diluted in HTRF detection buffer and 5 µl was dispensed on top of the binding reaction. The reaction mixture was allowed to equilibrate for 30 minutes and the resulting signal (665 nm/620 nm ratio) was obtained using an EnVision fluorometer. Additional binding assays were established between the human proteins PD-1-Ig/PD-L2-His (20 & 5 nM, respectively) and CD80-His/PD-L1-Ig (100 & 10 nM, respectively).
Recombinant Proteins: Human PD-1 (25-167) with a C-terminal human Fc domain of immunoglobulin G (Ig) epitope tag [hPD-1 (25-167)-3S-IG] and human PD-L1 (18-239) with a C-terminal His epitope tag [hPD-L1(18-239)-TVMV-His] were expressed in HEK293T cells and purified sequentially by ProteinA affinity chromatography and size exclusion chromatography. Human PD-L2-His and CD80-His was obtained through commercial sources.
Table 1 lists the IC50 values for representative examples of this disclosure measured in the PD-1/PD-L1 Homogenous Time-Resolved Fluorescence (HTRF) binding assay.

Row | Compound | IC50 [nM]
1 | CCCC[C@H]1C(=O)N(C)[C@@H](CCCC)C(=O)N[C@@H](CC(C)C)C(=O)N[C@H](C(=O)NCC(N)=O)CSCC(=O)N[C@@H](Cc2ccc(O)cc2)C(=O)N(C)[C@@H](C)C(=O)N[C@@H](CC(N)=O)C(=O)N2CCC[C@H]2C(=O)N[C@@H](CNC[C@H](O)[C@@H](O)[C@H](O[C@@H]2O[C@H](CO)[C@H](O)[C@H](O)[C@H]2O)[C@H](O)CO)C(=O)N[C@@H](CC(C)C)C(=O)N2C[C@H](O)C[C@H]2C(=O)N[C@@H](Cc2c[nH]c3ccccc23)C(=O)N[C@@H](CCN)C(=O)N[C@@H](Cc2cn(CC(=O)O)c3ccccc23)C(=O)N1C [Example 2013] ({CH2CO}-Y[NMeA]NP[X27]L[Hyp]W[Dab][Trp(1-CH2COOH)][NMeNle][NMeNle]LCG-NH2; thioether N-14) | 9.7
2 | CCCC[C@H]1C(=O)N(C)[C@@H](CCCC)C(=O)N[C@@H](CC(C)C)C(=O)N[C@H](C(=O)NCC(N)=O)CSCC(=O)N[C@@H](Cc2ccc(O)cc2)C(=O)N(C)[C@@H](C)C(=O)N[C@@H](CC(N)=O)C(=O)N2CCC[C@H]2C(=O)N[C@@H](CNC[C@H](O)[C@@H](O)[C@H](O)CO)C(=O)N[C@@H](CC(C)C)C(=O)N2C[C@H](O)C[C@H]2C(=O)N[C@@H](Cc2c[nH]c3ccccc23)C(=O)N[C@@H](CCNC[C@H](O)[C@@H](O)[C@H](O)CO)C(=O)N[C@@H](Cc2cn(CC(=O)O)c3ccccc23)C(=O)N1C [Example 2014] ({CH2CO}-Y[NMeA]NP[X5]L[Hyp]W[X6][Trp(1-CH2COOH)][NMeNle][NMeNle]LCG-NH2; thioether N-14) | 2.5
3 | CCCC[C@H]1C(=O)N(C)[C@@H](CCCC)C(=O)N[C@@H](CC(C)C)C(=O)N[C@H](C(=O)NCC(N)=O)CSCC(=O)N[C@@H](Cc2ccc(O)cc2)C(=O)N(C)[C@@H](C)C(=O)N[C@@H](CC(N)=O)C(=O)N2CCC[C@H]2C(=O)N[C@@H](CNC[C@H](O)[C@@H](O)[C@@H](O)[C@H](O)CO)C(=O)N[C@@H](CC(C)C)C(=O)N2C[C@H](O)C[C@H]2C(=O)N[C@@H](Cc2c[nH]c3ccccc23)C(=O)N[C@@H](CCN)C(=O)N[C@@H](Cc2cn(CC(=O)O)c3ccccc23)C(=O)N1C [Example 2017] ({CH2CO}-Y[NMeA]NP[X11]L[Hyp]W[Dab][Trp(1-CH2COOH)][NMeNle][NMeNle]LCG-NH2; thioether N-14) | 7.2
4 | CCCC[C@H]1C(=O)N(C)[C@@H](CCCC)C(=O)N[C@@H](CC(C)C)C(=O)N[C@H](C(=O)NCC(N)=O)CSCC(=O)N[C@@H](Cc2ccc(O)cc2)C(=O)N(C)[C@@H](C)C(=O)N[C@@H](CC(N)=O)C(=O)N2CCC[C@H]2C(=O)N[C@@H](CNC[C@@H](O)[C@H](O)[C@@H](O)CO)C(=O)N[C@@H](CC(C)C)C(=O)N2C[C@H](O)C[C@H]2C(=O)N[C@@H](Cc2c[nH]c3ccccc23)C(=O)N[C@@H](CCNC[C@@H](O)[C@H](O)[C@@H](O)CO)C(=O)N[C@@H](Cc2cn(CC(=O)O)c3ccccc23)C(=O)N1C [Example 2018] ({CH2CO}-Y[NMeA]NP[X31]L[Hyp]W[X32][Trp(1-CH2COOH)][NMeNle][NMeNle]LCG-NH2; thioether N-14) | 2.4

Molecules with a lower IC50, results first:

Row | IC50 [nM] | Compound
5 | 2 | CCCC[C@H]1C(=O)N(C)[C@@H](CCCC)C(=O)N[C@@H](CC(C)C)C(=O)N[C@H](C(=O)NCC(N)=O)CSCC(=O)N[C@@H](Cc2ccc(O)cc2)C(=O)N(C)[C@@H](C)C(=O)N[C@@H](CC(N)=O)C(=O)N2CCC[C@H]2C(=O)N[C@@H](CNC[C@@H](O)[C@H](O)[C@@H](O)[C@@H](O)CO)C(=O)N[C@@H](CC(C)C)C(=O)N2C[C@H](O)C[C@H]2C(=O)N[C@@H](Cc2c[nH]c3ccccc23)C(=O)N[C@@H](CCN)C(=O)N[C@@H](Cc2cn(CC(=O)O)c3ccccc23)C(=O)N1C [Example 2016] ({CH2CO}-Y[NMeA]NP[X43]L[Hyp]W[Dab][Trp(1-CH2COOH)][NMeNle][NMeNle]LCG-NH2; thioether N-14)
6 | 1.8 | CCCC[C@H]1C(=O)N(C)[C@@H](CCCC)C(=O)N[C@@H](CC(C)C)C(=O)N[C@H](C(=O)NCC(N)=O)CSCC(=O)N[C@@H](Cc2ccc(O)cc2)C(=O)N(C)[C@@H](C)C(=O)N[C@@H](CC(N)=O)C(=O)N2CCC[C@H]2C(=O)N[C@@H](CNC[C@H](O)[C@@H](O)[C@H](O)[C@H](O)CO)C(=O)N[C@@H](CC(C)C)C(=O)N2C[C@H](O)C[C@H]2C(=O)N[C@@H](Cc2c[nH]c3ccccc23)C(=O)N[C@@H](CCN)C(=O)N[C@@H](Cc2cn(CC(=O)O)c3ccccc23)C(=O)N1C [Example 2015] ({CH2CO}-Y[NMeA]NP[X58]L[Hyp]W[Dab][Trp(1-CH2COOH)][NMeNle][NMeNle]LCG-NH2; thioether N-14)
